Laboratory results reported in ChEMBL document CHEMBL1158584, “Mono-, di-, and triaryl substituted tetrahydropyrans as cyclooxygenase-2 and tumor growth inhibitors. Synthesis and biological evaluation” (J Med Chem, 2010).

Molecular target: T1, Prostaglandin G/H synthase 1 (Ovis aries, UniProt P05979)
T1 sequence (P05979 whole entry): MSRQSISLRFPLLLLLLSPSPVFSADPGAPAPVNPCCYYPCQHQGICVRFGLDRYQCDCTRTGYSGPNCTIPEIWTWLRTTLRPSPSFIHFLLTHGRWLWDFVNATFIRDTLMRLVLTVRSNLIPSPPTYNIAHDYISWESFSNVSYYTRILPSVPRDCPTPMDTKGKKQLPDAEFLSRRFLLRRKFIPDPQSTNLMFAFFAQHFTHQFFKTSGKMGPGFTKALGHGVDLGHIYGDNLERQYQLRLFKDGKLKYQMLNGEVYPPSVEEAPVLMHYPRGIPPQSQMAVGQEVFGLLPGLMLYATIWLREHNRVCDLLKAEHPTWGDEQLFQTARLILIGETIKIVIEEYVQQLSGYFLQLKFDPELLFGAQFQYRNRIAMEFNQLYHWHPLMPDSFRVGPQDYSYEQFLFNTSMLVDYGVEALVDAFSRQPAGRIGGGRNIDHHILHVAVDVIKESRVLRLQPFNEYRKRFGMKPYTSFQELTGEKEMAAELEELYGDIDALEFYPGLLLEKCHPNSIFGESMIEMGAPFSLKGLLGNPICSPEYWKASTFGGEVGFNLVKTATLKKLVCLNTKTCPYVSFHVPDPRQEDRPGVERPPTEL
Experiment: Inhibition of ovine COX1 assessed as inhibition of PGF2a formation after 20 mins by Ellman's method
Conditions: not given

| IC50 [µM] | SMILES |
| --- | --- |
| 0.209 | N#CSC[C@@H]1C[C@@](O)(c2ccccc2)C[C@H](c2ccc(Br)cc2)O1 (relative stereo) |
| 13.9 | CCSC[C@@H]1C[C@](O)(c2ccccc2)[C@@H](c2ccccc2)[C@H](c2ccccc2)O1 (relative stereo) |
| 64 | N#CSC[C@@H]1C[C@](O)(c2ccccc2)[C@@H](c2ccccc2)[C@H](c2ccccc2)O1 (relative stereo) |
| 0.413 | CCSC[C@@H]1C[C@@](O)(c2ccccc2)C[C@H](c2ccc(Cl)cc2)O1 (relative stereo) |
| 0.562 | CCSC[C@@H]1C[C@@](O)(c2ccccc2)C[C@H](c2ccc(Br)cc2)O1 (relative stereo) |
| 13 | N#CSC[C@@H]1C[C@](O)(c2ccccc2)[C@@H](c2ccccc2)[C@H](c2ccc(Br)cc2)O1 (relative stereo) |
| 2.79 | N#CSC[C@@H]1C[C@@](O)(c2ccccc2)C[C@H](c2ccccc2)O1 (relative stereo) |
| 0.347 | CCSC[C@@H]1C[C@@](O)(c2ccccc2)C[C@H](C)O1 (relative stereo) |
| 0.368 | C[C@H]1C[C@](O)(c2ccccc2)C[C@@H](CSC#N)O1 (relative stereo) |
| 2.93 | CCSC[C@@H]1C[C@@](O)(c2ccccc2)C[C@H](c2ccccc2)O1 (relative stereo) |
| 23.8 | CCSC[C@@H]1C[C@](O)(c2ccccc2)[C@@H](c2ccccc2)[C@H](c2ccc(Br)cc2)O1 (relative stereo) |

Test system: not listed separately
Experiment: Growth inhibition of human NCI60 cells after 48 hrs by sulforhodamine B assay
Type: functional
Conditions: NCI60, 48 h

| SMILES | GI50 [µM] |
| --- | --- |
| Cc1ccc(-c2cc(C(F)(F)F)nn2-c2ccc(S(N)(=O)=O)cc2)cc1 [CELECOXIB] | 17.5 |

Same assay, conditions: NCI60, 48 h, read-out: LC50 (the source's name)

| SMILES | CC50 [µM] |
| --- | --- |
| Cc1ccc(-c2cc(C(F)(F)F)nn2-c2ccc(S(N)(=O)=O)cc2)cc1 [CELECOXIB] | 63.3 |

Molecular target: T2, Prostaglandin G/H synthase 1 (Ovis aries) (UniProt P05979)
T2 sequence (whole entry): T1 sequence (P05979 whole entry)
Experiment: Inhibition of ovine COX1 assessed as inhibition of PGF2a formation at 100 uM after 20 mins by Ellman's method
Conditions: not given

| inhibition [%] | SMILES |
| --- | --- |
| 52 | CCSC[C@@H]1C[C@](O)(c2ccccc2)[C@@H](c2ccccc2)[C@H](c2ccccc2)O1 (relative stereo) |
| 50 | N#CSC[C@@H]1C[C@](O)(c2ccccc2)[C@@H](c2ccccc2)[C@H](c2ccccc2)O1 (relative stereo) |
| 50 | N#CSC[C@@H]1C[C@](O)(c2ccccc2)[C@@H](c2ccccc2)[C@H](c2ccc(Br)cc2)O1 (relative stereo) |
| 62 | CCSC[C@@H]1C[C@@](O)(c2ccccc2)C[C@H](C)O1 (relative stereo) |
| 65 | C[C@H]1C[C@](O)(c2ccccc2)C[C@@H](CSC#N)O1 (relative stereo) |
| 60 | CCSC[C@@H]1C[C@](O)(c2ccccc2)[C@@H](c2ccccc2)[C@H](c2ccc(Br)cc2)O1 (relative stereo) |

Molecular target: T2, Prostaglandin G/H synthase 1 (Ovis aries)
Experiment: Inhibition of ovine COX1 assessed as inhibition of PGF2a formation at 100 nM after 20 mins by Ellman's method
Conditions: not given

| inhibition [%] | SMILES |
| --- | --- |
| 48 | N#CSC[C@@H]1C[C@@](O)(c2ccccc2)C[C@H](c2ccc(Br)cc2)O1 (relative stereo) |
| 45 | CCSC[C@@H]1C[C@@](O)(c2ccccc2)C[C@H](c2ccc(Cl)cc2)O1 (relative stereo) |
| 40 | CCSC[C@@H]1C[C@@](O)(c2ccccc2)C[C@H](c2ccc(Br)cc2)O1 (relative stereo) |
| 26 | N#CSC[C@@H]1C[C@@](O)(c2ccccc2)C[C@H](c2ccccc2)O1 (relative stereo) |
| 40 | CCSC[C@@H]1C[C@@](O)(c2ccccc2)C[C@H](C)O1 (relative stereo) |
| 38 | C[C@H]1C[C@](O)(c2ccccc2)C[C@@H](CSC#N)O1 (relative stereo) |
| 25 | CCSC[C@@H]1C[C@@](O)(c2ccccc2)C[C@H](c2ccccc2)O1 (relative stereo) |

Molecular target: T2, Prostaglandin G/H synthase 1 (Ovis aries)
Experiment: Inhibition of ovine COX1 assessed as inhibition of PGF2a formation at 1 uM after 20 mins by Ellman's method
Conditions: not given

| inhibition [%] | SMILES |
| --- | --- |
| 65 | N#CSC[C@@H]1C[C@@](O)(c2ccccc2)C[C@H](c2ccc(Br)cc2)O1 (relative stereo) |
| 16 | CCSC[C@@H]1C[C@](O)(c2ccccc2)[C@@H](c2ccccc2)[C@H](c2ccccc2)O1 (relative stereo) |
| 24 | N#CSC[C@@H]1C[C@](O)(c2ccccc2)[C@@H](c2ccccc2)[C@H](c2ccccc2)O1 (relative stereo) |
| 60 | CCSC[C@@H]1C[C@@](O)(c2ccccc2)C[C@H](c2ccc(Cl)cc2)O1 (relative stereo) |
| 58 | CCSC[C@@H]1C[C@@](O)(c2ccccc2)C[C@H](c2ccc(Br)cc2)O1 (relative stereo) |
| 28 | N#CSC[C@@H]1C[C@](O)(c2ccccc2)[C@@H](c2ccccc2)[C@H](c2ccc(Br)cc2)O1 (relative stereo) |
| 39 | N#CSC[C@@H]1C[C@@](O)(c2ccccc2)C[C@H](c2ccccc2)O1 (relative stereo) |
| 51 | CCSC[C@@H]1C[C@@](O)(c2ccccc2)C[C@H](C)O1 (relative stereo) |
| 55 | C[C@H]1C[C@](O)(c2ccccc2)C[C@@H](CSC#N)O1 (relative stereo) |
| 37 | CCSC[C@@H]1C[C@@](O)(c2ccccc2)C[C@H](c2ccccc2)O1 (relative stereo) |
| 41 | CCSC[C@@H]1C[C@](O)(c2ccccc2)[C@@H](c2ccccc2)[C@H](c2ccc(Br)cc2)O1 (relative stereo) |

Molecular target: T2, Prostaglandin G/H synthase 1 (Ovis aries)
Experiment: Inhibition of ovine COX1 assessed as inhibition of PGF2a formation at 0.01 uM after 20 mins by Ellman's method
Conditions: not given

| inhibition [%] | SMILES |
| --- | --- |
| 32 | CCSC[C@@H]1C[C@@](O)(c2ccccc2)C[C@H](C)O1 (relative stereo) |
| 32 | C[C@H]1C[C@](O)(c2ccccc2)C[C@@H](CSC#N)O1 (relative stereo) |

Molecular target: T2, Prostaglandin G/H synthase 1 (Ovis aries)
Experiment: Inhibition of ovine COX1 assessed as inhibition of PGF2a formation at 10 uM after 20 mins by Ellman's method
Conditions: not given

| inhibition [%] | SMILES |
| --- | --- |
| 94 | N#CSC[C@@H]1C[C@@](O)(c2ccccc2)C[C@H](c2ccc(Br)cc2)O1 (relative stereo) |
| 38 | CCSC[C@@H]1C[C@](O)(c2ccccc2)[C@@H](c2ccccc2)[C@H](c2ccccc2)O1 (relative stereo) |
| 27 | N#CSC[C@@H]1C[C@](O)(c2ccccc2)[C@@H](c2ccccc2)[C@H](c2ccccc2)O1 (relative stereo) |
| 94 | CCSC[C@@H]1C[C@@](O)(c2ccccc2)C[C@H](c2ccc(Cl)cc2)O1 (relative stereo) |
| 94 | CCSC[C@@H]1C[C@@](O)(c2ccccc2)C[C@H](c2ccc(Br)cc2)O1 (relative stereo) |
| 29 | N#CSC[C@@H]1C[C@](O)(c2ccccc2)[C@@H](c2ccccc2)[C@H](c2ccc(Br)cc2)O1 (relative stereo) |
| 94 | N#CSC[C@@H]1C[C@@](O)(c2ccccc2)C[C@H](c2ccccc2)O1 (relative stereo) |
| 55 | CCSC[C@@H]1C[C@@](O)(c2ccccc2)C[C@H](C)O1 (relative stereo) |
| 60 | C[C@H]1C[C@](O)(c2ccccc2)C[C@@H](CSC#N)O1 (relative stereo) |
| 94 | CCSC[C@@H]1C[C@@](O)(c2ccccc2)C[C@H](c2ccccc2)O1 (relative stereo) |
| 38 | CCSC[C@@H]1C[C@](O)(c2ccccc2)[C@@H](c2ccccc2)[C@H](c2ccc(Br)cc2)O1 (relative stereo) |
